Source: paper PMC3623961, “A Comparative Study of Interaction of Tetracycline with Several Proteins Using Time Resolved Anisotropy, Phosphorescence, Docking and FRET” (PLoS ONE, 2013)
Where a name gives a salt, the structure may show the parent alone.

Assays:
[1] = biological target: T1, Human serum albumin (HSA) (Homo sapiens, UniProt P02768); experiment: fluorescence enhancement of bound tetracycline, modified Benesi-Hildebrand; conditions: read-out: Binding Constant (M^-1) (converted)
T1 construct: gene ALB; mature serum albumin, 585 amino acids, 17 disulfides, single Trp214; purchased from Sigma-Aldrich
T1 sequence (P02768 25-609): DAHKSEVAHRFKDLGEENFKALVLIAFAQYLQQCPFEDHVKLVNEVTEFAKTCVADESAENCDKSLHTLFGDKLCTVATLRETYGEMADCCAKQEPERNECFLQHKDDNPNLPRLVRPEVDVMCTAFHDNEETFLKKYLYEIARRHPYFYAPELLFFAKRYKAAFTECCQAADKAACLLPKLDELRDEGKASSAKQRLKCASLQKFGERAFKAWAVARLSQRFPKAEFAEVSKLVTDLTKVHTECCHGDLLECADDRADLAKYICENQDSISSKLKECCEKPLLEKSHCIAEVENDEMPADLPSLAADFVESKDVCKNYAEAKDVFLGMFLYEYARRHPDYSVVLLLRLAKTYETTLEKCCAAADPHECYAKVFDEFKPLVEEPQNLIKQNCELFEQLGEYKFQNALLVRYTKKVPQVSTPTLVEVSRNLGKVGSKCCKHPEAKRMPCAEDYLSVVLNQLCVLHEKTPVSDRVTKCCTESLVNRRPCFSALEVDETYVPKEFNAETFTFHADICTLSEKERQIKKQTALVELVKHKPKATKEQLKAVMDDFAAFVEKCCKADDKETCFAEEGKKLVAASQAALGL
Description: fluorescence enhancement of bound tetracycline, modified Benesi-Hildebrand on Human serum albumin (HSA)

[2] = biological target: T2, Bovine serum albumin (BSA) (Bos taurus, UniProt P02769); experiment: as above; conditions: read-out: Binding Constant (M^-1) (converted)
T2 construct: gene ALB; mature serum albumin, 17 disulfides, Trp134 and Trp213; purchased from Sigma-Aldrich
T2 sequence (P02769 25-607): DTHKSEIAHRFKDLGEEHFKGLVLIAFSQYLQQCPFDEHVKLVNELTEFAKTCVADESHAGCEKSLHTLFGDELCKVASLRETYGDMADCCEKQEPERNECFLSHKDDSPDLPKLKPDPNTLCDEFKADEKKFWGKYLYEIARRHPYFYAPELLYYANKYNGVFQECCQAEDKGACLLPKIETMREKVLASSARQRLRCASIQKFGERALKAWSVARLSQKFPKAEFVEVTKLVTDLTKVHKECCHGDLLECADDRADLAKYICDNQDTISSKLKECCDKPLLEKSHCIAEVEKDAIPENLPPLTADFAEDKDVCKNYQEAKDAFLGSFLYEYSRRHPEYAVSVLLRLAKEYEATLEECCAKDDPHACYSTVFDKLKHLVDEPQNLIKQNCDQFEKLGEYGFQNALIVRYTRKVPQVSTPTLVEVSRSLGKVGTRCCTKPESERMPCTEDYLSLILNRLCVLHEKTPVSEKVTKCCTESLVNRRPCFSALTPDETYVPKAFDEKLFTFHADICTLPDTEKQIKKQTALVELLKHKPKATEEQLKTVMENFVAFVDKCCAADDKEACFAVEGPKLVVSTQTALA
Description: fluorescence enhancement of bound tetracycline, modified Benesi-Hildebrand on Bovine serum albumin (BSA)

Structure (SMILES): CN(C)[C@@H]1C(O)=C(C(N)=O)C(=O)[C@@]2(O)C(O)=C3C(=O)c4c(O)cccc4[C@@](C)(O)[C@H]3C[C@@H]12 [Tetracycline hydrochloride]
- Kd [1]: 31.8 µM
- Kd [2]: 21.2 µM
